# Reference: PubChem BioAssay (NCI)
#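 Compound exposure: 48 hours, 5 concentrations, 96-well plates. TGI marks complete inhibition of growth.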
# Columns and labels:
# Assay in all cases: NCI-60 cell line screen, 48 h
# RPMI-8226 leukemia = tested on: RPMI-8226 leukemia
# SNB-19 CNS = tested on: SNB-19 CNS
# COLO 205 colon = tested on: COLO 205 colon
# RXF 393 renal = tested on: RXF 393 renal
# NCI-H226 lung = tested on: NCI-H226 lung
# SF-268 CNS = tested on: SF-268 CNS
# SK-MEL-28 melanoma = tested on: SK-MEL-28 melanoma
# SN12C renal = tested on: SN12C renal
# HOP-62 NSCLC = tested on: HOP-62 NSCLC
# MDA-N = tested on: MDA-N
# HT29 colon = tested on: HT29 colon
# HOP-92 NSCLC = tested on: HOP-92 NSCLC
# HCC-2998 colon = tested on: HCC-2998 colon
# DU-145 prostate = tested on: DU-145 prostate
# A498 renal = tested on: A498 renal
# OVCAR-5 ovarian = tested on: OVCAR-5 ovarian
# SNB-75 CNS = tested on: SNB-75 CNS
# MDA-MB-435 = tested on: MDA-MB-435
# BT-549 breast = tested on: BT-549 breast
# TK-10 renal = tested on: TK-10 renal
# HS 578T breast = tested on: HS 578T breast
# M14 melanoma = tested on: M14 melanoma
# KM12 colon = tested on: KM12 colon
# LOX IMVI melanoma = tested on: LOX IMVI melanoma
# PC-3 prostate = tested on: PC-3 prostate
# HL-60(TB) leukemia = tested on: HL-60(TB) leukemia
# SF-295 CNS = tested on: SF-295 CNS
# 786-0 renal = tested on: 786-0 renal
# UACC-62 melanoma = tested on: UACC-62 melanoma
# SK-OV-3 ovarian = tested on: SK-OV-3 ovarian
# OVCAR-8 ovarian = tested on: OVCAR-8 ovarian
# ACHN renal = tested on: ACHN renal
# CAKI-1 renal = tested on: CAKI-1 renal
# SF-539 CNS = tested on: SF-539 CNS
# U251 CNS = tested on: U251 CNS
# HCT-116 colon = tested on: HCT-116 colon
# A549 NSCLC = tested on: A549 NSCLC
# OVCAR-3 ovarian = tested on: OVCAR-3 ovarian
# UO-31 renal = tested on: UO-31 renal
# EKVX NSCLC = tested on: EKVX NSCLC
# MALME-3M melanoma = tested on: MALME-3M melanoma
# MOLT-4 leukemia = tested on: MOLT-4 leukemia
# NCI/ADR-RES ovarian = tested on: NCI/ADR-RES ovarian
# SK-MEL-2 melanoma = tested on: SK-MEL-2 melanoma
# SR leukemia = tested on: SR leukemia
# NCI-H522 lung = tested on: NCI-H522 lung
# MCF7 breast = tested on: MCF7 breast
# SK-MEL-5 melanoma = tested on: SK-MEL-5 melanoma
# HCT-15 colon = tested on: HCT-15 colon
# NCI-H23 lung = tested on: NCI-H23 lung
# NCI-H460 lung = tested on: NCI-H460 lung
# MDA-MB-231 breast = tested on: MDA-MB-231 breast
# SW-620 colon = tested on: SW-620 colon
# OVCAR-4 ovarian = tested on: OVCAR-4 ovarian
# UACC-257 melanoma = tested on: UACC-257 melanoma
# CCRF-CEM leukemia = tested on: CCRF-CEM leukemia
# K-562 leukemia = tested on: K-562 leukemia
# IGROV1 ovarian = tested on: IGROV1 ovarian
# T-47D breast = tested on: T-47D breast
structure (smiles),measurement,setting,value
CN(C)c1ccc(/C=C2\N=C(N/N=C/c3ccccc3O)NC2=O)cc1,TGI,RPMI-8226 leukemia,> 100 µM
same,TGI,SNB-19 CNS,> 100 µM
same,TGI,COLO 205 colon,> 100 µM
same,TGI,RXF 393 renal,55.9 µM
same,TGI,NCI-H226 lung,41.1 µM
same,TGI,SF-268 CNS,> 100 µM
same,TGI,SK-MEL-28 melanoma,62.7 µM
same,TGI,SN12C renal,> 100 µM
same,TGI,HOP-62 NSCLC,53 µM
same,TGI,MDA-N,> 100 µM
same,TGI,HT29 colon,> 100 µM
same,TGI,HOP-92 NSCLC,59.7 µM
same,TGI,HCC-2998 colon,> 100 µM
same,TGI,DU-145 prostate,> 100 µM
same,TGI,A498 renal,61.7 µM
same,TGI,OVCAR-5 ovarian,> 100 µM
same,TGI,SNB-75 CNS,89.7 µM
same,TGI,MDA-MB-435,> 100 µM
same,TGI,BT-549 breast,> 100 µM
same,TGI,TK-10 renal,59.4 µM
same,TGI,HS 578T breast,> 100 µM
CCN(CC)c1ccc(/C=C/C(=O)c2cc(C(C)(C)C)c(O)c(C(C)(C)C)c2)cc1,TGI,M14 melanoma,> 93.9 µM
same,TGI,KM12 colon,> 30.3 µM
same,TGI,RPMI-8226 leukemia,38.8 µM
same,TGI,LOX IMVI melanoma,> 100 µM
same,TGI,PC-3 prostate,> 100 µM
same,TGI,SNB-19 CNS,> 100 µM
same,TGI,HL-60(TB) leukemia,> 39.2 µM
same,TGI,COLO 205 colon,14.7 µM
same,TGI,SF-295 CNS,7.98 µM
same,TGI,RXF 393 renal,39.1 µM
same,TGI,786-0 renal,> 81.2 µM
same,TGI,UACC-62 melanoma,> 100 µM
same,TGI,SK-OV-3 ovarian,> 100 µM
same,TGI,OVCAR-8 ovarian,> 100 µM
same,TGI,ACHN renal,> 100 µM
same,TGI,NCI-H226 lung,99.1 µM
same,TGI,CAKI-1 renal,> 100 µM
same,TGI,SF-539 CNS,10.5 µM
same,TGI,SF-268 CNS,> 52.9 µM
same,TGI,SK-MEL-28 melanoma,> 100 µM
same,TGI,SN12C renal,> 84 µM
same,TGI,HOP-62 NSCLC,> 100 µM
same,TGI,MDA-N,13.5 µM
same,TGI,U251 CNS,11.9 µM
same,TGI,HCT-116 colon,> 39.1 µM
same,TGI,A549 NSCLC,> 100 µM
same,TGI,HT29 colon,9.52 µM
same,TGI,HOP-92 NSCLC,> 100 µM
same,TGI,OVCAR-3 ovarian,> 100 µM
same,TGI,UO-31 renal,> 100 µM
same,TGI,EKVX NSCLC,> 100 µM
same,TGI,MALME-3M melanoma,> 100 µM
same,TGI,MOLT-4 leukemia,> 100 µM
same,TGI,HCC-2998 colon,37 µM
same,TGI,NCI/ADR-RES ovarian,26.9 µM
same,TGI,SK-MEL-2 melanoma,> 71.5 µM
same,TGI,SR leukemia,> 24.5 µM
same,TGI,NCI-H522 lung,10.2 µM
same,TGI,MCF7 breast,> 100 µM
same,TGI,DU-145 prostate,> 100 µM
same,TGI,SK-MEL-5 melanoma,70.9 µM
same,TGI,HCT-15 colon,> 100 µM
same,TGI,NCI-H23 lung,> 100 µM
same,TGI,A498 renal,> 100 µM
same,TGI,OVCAR-5 ovarian,> 44.8 µM
same,TGI,NCI-H460 lung,38.2 µM
same,TGI,MDA-MB-231 breast,48.1 µM
same,TGI,SNB-75 CNS,> 100 µM
same,TGI,SW-620 colon,> 100 µM
same,TGI,OVCAR-4 ovarian,> 100 µM
same,TGI,MDA-MB-435,13.3 µM
same,TGI,BT-549 breast,> 100 µM
same,TGI,UACC-257 melanoma,> 100 µM
same,TGI,CCRF-CEM leukemia,> 66 µM
same,TGI,TK-10 renal,97.6 µM
same,TGI,HS 578T breast,> 39.9 µM
same,TGI,K-562 leukemia,> 100 µM
same,TGI,IGROV1 ovarian,> 100 µM
CCN(CCCl)c1cc(CN(C)C)cc(NC(=O)C23CCC(C(=O)Nc4cc(CN(C)C)cc(N(CC)CCCl)c4)(CC2)CC3)c1,TGI,M14 melanoma,14.8 µM
same,TGI,KM12 colon,3.17 µM
same,TGI,RPMI-8226 leukemia,> 100 µM
same,TGI,LOX IMVI melanoma,1.57 µM
same,TGI,PC-3 prostate,1.95 µM
same,TGI,SNB-19 CNS,3.3 µM
same,TGI,HL-60(TB) leukemia,> 100 µM
same,TGI,COLO 205 colon,2.81 µM
same,TGI,SF-295 CNS,11.9 µM
same,TGI,RXF 393 renal,3.18 µM
same,TGI,786-0 renal,1 µM
same,TGI,UACC-62 melanoma,4.18 µM
same,TGI,SK-OV-3 ovarian,4.24 µM
same,TGI,OVCAR-8 ovarian,3.16 µM
same,TGI,ACHN renal,9.22 µM
same,TGI,NCI-H226 lung,4 µM
same,TGI,T-47D breast,19.2 µM
same,TGI,CAKI-1 renal,23.2 µM
same,TGI,SF-539 CNS,2.15 µM
same,TGI,SF-268 CNS,16 µM
same,TGI,SK-MEL-28 melanoma,3.55 µM
same,TGI,SN12C renal,2.39 µM
same,TGI,HOP-62 NSCLC,2.76 µM
same,TGI,MDA-N,2.38 µM
same,TGI,U251 CNS,11 µM
same,TGI,HCT-116 colon,5.33 µM
same,TGI,A549 NSCLC,5.14 µM
same,TGI,HT29 colon,1.95 µM
same,TGI,HOP-92 NSCLC,5.06 µM
same,TGI,UO-31 renal,30.9 µM
same,TGI,MALME-3M melanoma,3.21 µM
same,TGI,MOLT-4 leukemia,0.503 µM
same,TGI,HCC-2998 colon,2.73 µM
same,TGI,NCI/ADR-RES ovarian,> 100 µM
same,TGI,SK-MEL-2 melanoma,4.35 µM
same,TGI,SR leukemia,24.2 µM
same,TGI,NCI-H522 lung,1.47 µM
same,TGI,MCF7 breast,2.01 µM
same,TGI,DU-145 prostate,11.9 µM
same,TGI,SK-MEL-5 melanoma,3.33 µM
same,TGI,HCT-15 colon,26.4 µM
same,TGI,NCI-H23 lung,4.71 µM
same,TGI,A498 renal,20.2 µM
same,TGI,OVCAR-5 ovarian,10.4 µM
same,TGI,NCI-H460 lung,2.17 µM
same,TGI,MDA-MB-231 breast,26.6 µM
same,TGI,SNB-75 CNS,8.33 µM
same,TGI,SW-620 colon,1.65 µM
same,TGI,OVCAR-4 ovarian,5.12 µM
same,TGI,MDA-MB-435,3.08 µM
same,TGI,UACC-257 melanoma,15.5 µM
same,TGI,CCRF-CEM leukemia,1.17 µM
same,TGI,TK-10 renal,21.2 µM
same,TGI,HS 578T breast,2.53 µM
same,TGI,K-562 leukemia,4.73 µM
same,TGI,IGROV1 ovarian,3.28 µM
O=C(O)[C@H](Cc1ccccc1)NCCN1CCC[C@H]1C(=O)O,TGI,M14 melanoma,> 100 µM
same,TGI,KM12 colon,> 100 µM
same,TGI,RPMI-8226 leukemia,> 100 µM
same,TGI,PC-3 prostate,> 100 µM
same,TGI,SNB-19 CNS,> 100 µM
same,TGI,COLO 205 colon,> 100 µM
same,TGI,SF-295 CNS,> 100 µM
same,TGI,RXF 393 renal,> 100 µM
same,TGI,786-0 renal,> 100 µM
same,TGI,UACC-62 melanoma,> 100 µM
same,TGI,SK-OV-3 ovarian,> 100 µM
same,TGI,OVCAR-8 ovarian,> 100 µM
same,TGI,T-47D breast,> 100 µM
same,TGI,CAKI-1 renal,> 100 µM
same,TGI,SF-539 CNS,> 100 µM
same,TGI,SF-268 CNS,> 100 µM
same,TGI,SK-MEL-28 melanoma,> 100 µM
same,TGI,SN12C renal,> 100 µM
same,TGI,HOP-62 NSCLC,> 100 µM
same,TGI,MDA-N,> 100 µM
same,TGI,U251 CNS,> 100 µM
same,TGI,HCT-116 colon,> 100 µM
same,TGI,A549 NSCLC,> 100 µM
same,TGI,HT29 colon,> 100 µM
same,TGI,HOP-92 NSCLC,72.3 µM
same,TGI,OVCAR-3 ovarian,> 100 µM
same,TGI,UO-31 renal,> 100 µM
same,TGI,MALME-3M melanoma,> 100 µM
same,TGI,MOLT-4 leukemia,> 100 µM
same,TGI,NCI/ADR-RES ovarian,> 100 µM
same,TGI,SK-MEL-2 melanoma,> 100 µM
same,TGI,NCI-H522 lung,> 100 µM
same,TGI,MCF7 breast,> 100 µM
same,TGI,DU-145 prostate,> 100 µM
same,TGI,SK-MEL-5 melanoma,> 100 µM
same,TGI,HCT-15 colon,> 100 µM
same,TGI,NCI-H23 lung,> 100 µM
same,TGI,A498 renal,> 100 µM
same,TGI,OVCAR-5 ovarian,> 100 µM
same,TGI,NCI-H460 lung,> 100 µM
same,TGI,MDA-MB-231 breast,> 100 µM
same,TGI,SW-620 colon,> 100 µM
same,TGI,OVCAR-4 ovarian,> 100 µM
same,TGI,MDA-MB-435,> 100 µM
same,TGI,K-562 leukemia,> 100 µM
